Columns and labels:
stress ulcer formation = assay: WIS: Restraint and Water Immersion Stress-Induced Ulcer Inhibition Test; assay type: in vivo, Male Crj:SD or Slc:SD rats; conditions: rat, 100 mg/kg orally, 7 hours water immersion stress
Description: WIS: Restraint and Water Immersion Stress-Induced Ulcer Inhibition Test (i) Meaning The degree of inhibition of the stress ulcer formation is tested. (ii) Method Male Crj:SD or Slc:SD rats (6 to 7-weeek-old) were fasted overnight, but allowed free access to water. Each group has 5 to 8 of these rats. The sample compound was dissolved or suspended in an aqueous solution of 0.3% sodium carboxymethylcellulose or 0.05% Tween 80 and then was orally administered (100 mg/10 ml/kg). To a control group, the vehicle was administered. 10 minutes later, the rats were placed in a stress cage and immersed to the level of xiphoid process in a water bath (21° C.) for 7 hours. At the end of the stress, the rats were sacrificed by inhalation of ether or carbon dioxide. Then, the stomach of each was removed, inflated by injecting 10 ml of 5% formalin neutral buffer solution, and immersed in 1% formalin neutral buffer solution for 30 minutes or more to be fixed. The stomach was incised along the greater curvature and then the length of each erosion in the glandular portion was determined under dissecting microscope. The sum of the length of erosions per stomach was defined as ulcer index (UI). (iii) Judgment Standard […]

gastric mucosa = assay: PD: Gastric Mucosal Integrity Test (gastric mucosal potential difference); assay type: in vivo, Male Crj:SD rats; parameters: key: 5: Same as the control with no recognizable damage at all.; 4: Though a slight PD-decreasing tendency suggesting a slight possibility of mucosal damage is found, there is no problem.; 3: Though a weak decrease in PD and a possibility of a weak mucosal damage is recognized, there is no substantial problem.; 2: Medium degree of decrease in PD is found and a mucosal damage is recognized.; 1: Heavy degree of decrease in PD is found and a remarkable mucosal damage is recognized; conditions: rat, 100 mg/kg into the chamber, 60 minutes
Description: PD: Gastric Mucosal Integrity Test
In this case, since the sample compound has a necrotizing effect, it is inappropriate as an anti-ulcer medicament.
Therefore, the gastric mucosal potential difference (PD), which reflects the integrity of the gastric mucosa, is measured so as to confirm that the sample compound has no damaging effect on gastric mucosa, which is toxicity at gastric mucosal level.
Male Crj:SD rats (7 to 8-week-old) were fasted overnight, but allowed free access to water, and then, under urethane anesthesia (1.25 g/kg, i.p.), fixed to a cork board on its back. The abdomen of each rat was incised, and a small incision was made in the forestomach. Then, the inside of the stomach was washed with physiological saline heated at 37° C. From the forestomach, along the greater curvature thereof, the stomach was incised without damaging blood vessels. After the height of the cork board was adjusted on a jack, the stomach was mounted on ex vivo chamber. The area of the gastric mucosa exposed to the inside of this chamber was 2.5 cm^2. The inside of the chamber was perfused with physiological saline warmed at 37° C. by micro tube pump. By using an agar bridge containing 3M KCl, the potential difference between the chamber and the abdominal cavity was measured by a PD meter. Here, the rectal temperature was measured to control the body temperature during the experiment. After the PD was sufficiently stabilized, the perfusate was stopped and then 100 mg/10 ml/kg of the sample compound dissolved or suspended in an aqueous solution of 0.5% sodium carboxymethylcellulose or 0.05% Tween 80 was administered into the chamber, while PD was recorded for 60 minutes. To a control, the vehicle was administered.
The change in PD during 60 minutes after the administration of 100 mg/kg of the sample compound was collectively studied and, with reference to the positive control, classified into 5 levels as follows:
5: Same as the control with no recognizable damage at all.
3: Though a weak decrease in PD and a possibility of a weak mucosal damage is recognized, there is no substantial problem.
2: Medium degree of decrease in PD is found and a mucosal damage is recognized.
1: Heavy degree of decrease in PD is found and a remarkable mucosal damage is recognized.

Slc:ICR mice = tested on: Slc:ICR mice; parameters: species or system Male Slc:ICR mice; conditions: mouse, in vivo
Description: AT: Single Dose Toxicity Pretest
Male Slc:ICR mice (5-week-old) were used. Each group has 3 to 5 mice and each mouse was fasted, but allowed free access to water, for 4 to 5 hours from 9 a.m. in the test day. Then, 2,000 mg/10 ml/kg of the sample compound dissolved or suspended in an aqueous solution of 0.5% sodium carboxymethylcellulose was orally administered thereto. To a control, only the vehicle was administered. […] The body weight was measured before and after the fasting as well as at the same time everyday. The dead animals were immediately subjected to autopsy and their organs were observed by naked eyes. Also, the living animals were sacrificed with ether or carbon dioxide one week after the administration and then their organs were observed by naked eyes.
The toxicity at the single dose of 2,000 mg/kg of the sample compound was expressed as being classified into 5 levels.
5: Mortality rate is 0%; no toxicity is found at all both in behavior and organs.
4: Mortality rate is 0%; while no toxicity is found in organs, slight toxicity is observed in behavior and body weight increase.
3: While there is a dead animal (though not all the animals are dead), no toxicity is found in organs.
2: Regardless of whether there is a dead animal or not, toxicity is found in organs.
1: All the animals are dead.

[1] = tested on: histamine-stimulated gastric acid secretion (pylorus-ligated rats); assay: VOL, TAO: Acid Secretion Inhibition Test in vivo; parameters: species or system Male Crj:Donryu rats; conditions: rat, 100 mg/kg orally, histamine 30 mg/kg s.c.
Description: VOL, TAO: Acid Secretion Inhibition Test in vivo
Inhibitory effect on acid secretion in vivo is confirmed.
Male Crj:Donryu rats (7-week-old) were fasted overnight but allowed free access to water. In each group, 8 to 10 of these rats were used under urethane anesthesia (1.25 g/kg). The sample compound dissolved or suspended in an aqueous solution of 0.5% sodium carboxymethylcellulose or 0.05% Tween 80 was orally administered (100 mg/10 ml/kg). 30 minutes later, the abdomen of each was incised and the pylorus was ligated. 30 minutes after the ligation, 30 mg/kg of histamine dissolved in physiological saline was subcutaneously administered and, 3 hours thereafter, the rat was sacrificed with carbon dioxide. Immediately thereafter, each stomach was removed and the gastric contents were collected and each volume was determined. The total acid output was determined by titration of the gastric juice with 0.1N NaOH.
With respect to the gastric juice volume (VOL) and the total acid output (TAO), the effects obtained when 100 mg/kg of the sample compound had been administered were expressed as their respective inhibitory rates (%) as follows:
each inhibitory rate (%) {1-(value in sample group/value in control group)}×100

SMILES	WIS: ulcer formation inhibitory rate (stress ulcer formation)	PD: change in gastric mucosal potential difference (5 levels) (gastric mucosa)	AT: toxicity at the single dose (5 levels) (Slc:ICR mice)	TAO: total acid output inhibitory rate [1]	VOL: gastric juice volume inhibitory rate [1]
CCN(CC)CCSc1nnc(NC(=O)c2ccc(C(C)C)cc2)s1 [Example 1, 2-(4-isopropylbenzoyl)amino-5-diethylaminoethylthio-1,3,4-thiadiazole]	83%	3			
CC(C)=CCC/C(C)=C/COc1ccc(C(=O)Nc2nnc(SCCN3CCCCC3)s2)cc1 [Example 12, 2-(4-geranyloxybenzoyl)amino-5-piperidinoethylthio-1,3,4-thiadiazole]	44%	5	5		
CC(C)=CCC/C(C)=C/COc1ccc(C(=O)Nc2nnc(SCc3ccccn3)s2)cc1 [Example 14, 2-(4-geranyloxybenzoyl)amino-5-(2-pyridylmethyl)thio-1,3,4-thiadiazole]	30%	5	5		
CCN(CC)CCSc1nnc(NC(=O)c2ccc(OC/C=C(\C)CCC=C(C)C)cc2)s1 [Example 10, 2-(4-geranyloxybenzoyl)amino-5-diethylaminoethylthio-1,3,4-thiadiazole]	48%	5	5	44%	36%
CCN(CC)CCSc1nnc(NC(=O)c2ccc(C(C)(C)C)cc2)s1 [Example 4, 2-(4-tert-butylbenzoyl)amino-5-diethylaminoethylthio-1,3,4-thiadiazole]	79%	3			
CCSc1nnc(NC(=O)c2ccc(OC/C=C(\C)CCC=C(C)C)cc2)s1 [Example 15, 2-(4-geranyloxybenzoyl)amino-5-ethylthio-1,3,4-thiadiazole]	43%	5	5	19%	10%
CC(C)c1ccc(C(=O)Nc2nnc(SCCN(C(C)C)C(C)C)s2)cc1 [Example 2, 2-(4-isopropylbenzoyl)amino-5-diisopropylaminoethylthio-1,3,4-thiadiazole]	80%	5	5		

Source: US5912258A, “Thiadiazoleamide derivative and anti-ulcer drug” (Shiseido Co., Ltd., priority 1998, dated 1999)
